From patent US9051270B2, “Pyridone amides as modulators of sodium channels” (Vertex Pharmaceuticals Incorporated, priority 2013, dated 2015)

Key:
[1] = Microsomal stability assay, human liver microsomes (HLM); assay type: in vitro ADME; settings: human liver microsomes 0.5 mg/mL, 1 uM substrate, 2 mM NADPH, 37° C., referenced against time zero control
Protocol: (§1) Microsomal Stability Assay.
(§2) Compounds were incubated at 37° C. and shaken for 30 minutes in a phosphate buffered solution with either rat or human liver microsomes and the cofactor NADPH. A time zero control was similarly prepared, however with NADPH excluded. The final incubation concentrations were 1 uM substrate (0.2% DMSO), 0.5 mg/mL liver microsome, 2 mM NADPH, and 0.1 M phosphate. Reactions were quenched and proteins precipitated with the addition of 2 volume equivalents of ice cold acetonitrile containing an internal standard. Following a centrifugation step, aliquots from the quenched incubations were further diluted with 4 volume equivalents of a 50% aqueous methanol solution and then subjected to LC/MS/MS analysis for quantitation of parent compound. Microsome stability values were calculated as the percent of substrate remaining after 30 minutes referenced against the time zero control.
(§3) Microsomal stability in rat and human liver microsomes were determined for selected compounds of the present invention using the above assay. Table 4 provides the human liver microsomes (“HLM”) and rat liver microsomes (“RLM”) stability data as the percent of compound remaining after 30 minutes referenced against the time zero control.

[2] = Microsomal stability assay, rat liver microsomes (RLM); assay type: in vitro ADME; settings: rat liver microsomes 0.5 mg/mL, 1 uM substrate, 2 mM NADPH, 37° C., referenced against time zero control
Protocol: as §1, §2, §3

human Nav1.8 = human Nav1.8 (Homo sapiens (Human), UniProt Q9Y5Y9); experiment: E-VIPR optical membrane potential assay with electrical stimulation; assay type: cell-based; settings: HEK cells expressing human Nav1.8
Sequence of human Nav1.8 (Q9Y5Y9 whole entry): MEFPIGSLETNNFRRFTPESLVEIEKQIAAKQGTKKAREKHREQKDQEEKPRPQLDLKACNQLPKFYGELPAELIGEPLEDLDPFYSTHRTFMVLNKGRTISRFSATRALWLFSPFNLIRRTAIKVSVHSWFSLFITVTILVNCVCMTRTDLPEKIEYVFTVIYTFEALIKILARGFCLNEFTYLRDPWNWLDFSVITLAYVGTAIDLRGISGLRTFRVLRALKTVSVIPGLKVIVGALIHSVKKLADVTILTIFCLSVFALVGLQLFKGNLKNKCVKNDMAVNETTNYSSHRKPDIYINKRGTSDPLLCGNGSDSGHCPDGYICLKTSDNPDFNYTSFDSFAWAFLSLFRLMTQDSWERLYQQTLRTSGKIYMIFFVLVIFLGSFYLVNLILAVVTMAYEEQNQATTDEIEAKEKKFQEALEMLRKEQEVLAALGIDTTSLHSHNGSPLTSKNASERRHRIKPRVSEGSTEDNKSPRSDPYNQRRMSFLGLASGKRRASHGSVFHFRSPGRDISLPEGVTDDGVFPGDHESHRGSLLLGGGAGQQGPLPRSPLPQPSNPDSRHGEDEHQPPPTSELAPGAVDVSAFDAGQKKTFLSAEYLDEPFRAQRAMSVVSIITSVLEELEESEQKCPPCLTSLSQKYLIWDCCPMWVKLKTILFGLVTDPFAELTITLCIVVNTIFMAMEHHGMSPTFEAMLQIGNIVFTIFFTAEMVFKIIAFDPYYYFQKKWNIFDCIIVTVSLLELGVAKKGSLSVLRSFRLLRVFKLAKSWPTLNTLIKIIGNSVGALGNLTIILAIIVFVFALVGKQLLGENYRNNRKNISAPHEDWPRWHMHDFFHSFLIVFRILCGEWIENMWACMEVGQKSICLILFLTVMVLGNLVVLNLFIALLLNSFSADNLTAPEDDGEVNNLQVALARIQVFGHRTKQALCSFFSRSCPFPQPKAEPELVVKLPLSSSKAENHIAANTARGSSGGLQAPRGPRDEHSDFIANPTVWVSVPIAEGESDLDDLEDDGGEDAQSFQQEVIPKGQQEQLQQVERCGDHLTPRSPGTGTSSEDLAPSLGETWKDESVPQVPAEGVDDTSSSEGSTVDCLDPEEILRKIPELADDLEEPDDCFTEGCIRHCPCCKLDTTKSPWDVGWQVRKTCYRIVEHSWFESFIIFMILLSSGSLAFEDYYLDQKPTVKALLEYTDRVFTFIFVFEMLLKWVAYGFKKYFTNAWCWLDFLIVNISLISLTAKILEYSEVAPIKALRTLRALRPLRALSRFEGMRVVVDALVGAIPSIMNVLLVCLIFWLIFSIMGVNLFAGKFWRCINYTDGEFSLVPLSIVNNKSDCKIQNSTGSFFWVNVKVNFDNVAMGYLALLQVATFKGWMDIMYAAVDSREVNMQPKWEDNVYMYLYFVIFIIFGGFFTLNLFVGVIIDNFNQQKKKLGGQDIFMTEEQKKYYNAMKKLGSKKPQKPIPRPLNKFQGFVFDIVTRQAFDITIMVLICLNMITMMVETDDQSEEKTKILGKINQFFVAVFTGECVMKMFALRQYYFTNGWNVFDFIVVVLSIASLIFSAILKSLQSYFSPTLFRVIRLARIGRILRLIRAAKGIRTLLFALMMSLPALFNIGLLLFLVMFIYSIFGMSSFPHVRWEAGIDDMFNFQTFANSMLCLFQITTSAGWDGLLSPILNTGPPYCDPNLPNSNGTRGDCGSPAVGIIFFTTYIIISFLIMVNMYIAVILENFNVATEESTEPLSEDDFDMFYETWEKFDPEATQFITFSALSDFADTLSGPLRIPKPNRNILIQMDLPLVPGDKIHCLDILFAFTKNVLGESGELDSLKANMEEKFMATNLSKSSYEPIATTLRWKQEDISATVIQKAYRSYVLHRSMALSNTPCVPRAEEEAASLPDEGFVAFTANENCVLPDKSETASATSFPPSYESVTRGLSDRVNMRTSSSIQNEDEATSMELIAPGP

Question: What does the source list for `O=C(Nc1cc[nH]c(=O)c1)c1cc(Cl)c(Cl)cc1Oc1ccc(F)cc1` [Compound 113, 4,5-dichloro-2-(4-fluorophenoxy)-N-(2-oxo-1,2-dihydropyridin-4-yl)benzamide]?
Answer: HLM (% remaining @ 30 minutes) [1]: 105%; RLM (% remaining @ 30 minutes) [2]: 102%; IC50 (human Nav1.8): 6 nM

Question: Which results are given for `COc1cc(F)ccc1Oc1cc(Cl)c(Cl)cc1C(=O)Nc1cc[nH]c(=O)c1` [Compound 114, 4,5-dichloro-2-(4-fluoro-2-methoxyphenoxy)-N-(2-oxo-1,2-dihydropyridin-4-yl)benzamide]?
Answer: HLM (% remaining @ 30 minutes) [1]: 91%; RLM (% remaining @ 30 minutes) [2]: 82%; IC50 (human Nav1.8): 1 nM

Question: With `COc1ccc(Oc2cc(Cl)c(Cl)cc2C(=O)Nc2cc[nH]c(=O)c2)cc1F` [Compound 115, 4,5-dichloro-2-(3-fluoro-4-methoxyphenoxy)-N-(2-oxo-1,2-dihydropyridin-4-yl)benzamide] as the molecule, how does the “HLM (% remaining @ 30 minutes)” value [1] read?
Answer: Its value is 102%.

Question: What about the “RLM (% remaining @ 30 minutes)” value [2] of the same molecule?
Answer: The value was 95%.

Question: What about the IC50 (human Nav1.8) of the same molecule?
Answer: The IC50 was 7 nM.

Question: Which “HLM (% remaining @ 30 minutes)” value [1] does the source give for `O=C(Nc1cc[nH]c(=O)c1)c1ccc(C(F)(F)F)cc1OCC1CCCC1` [Compound 120, 2-(cyclopentylmethoxy)-N-(2-oxo-1,2-dihydropyridin-4-yl)-4-(trifluoromethyl)benzamide] here?
Answer: Its value is 87%.

Question: And the “RLM (% remaining @ 30 minutes)” value [2]?
Answer: The value was 79%.

Question: And the IC50 (human Nav1.8)?
Answer: Its IC50 is 150 nM.

Question: What does the source list for `O=C(Nc1cc[nH]c(=O)c1)c1ccc(C(F)(F)F)cc1OCCCC(F)(F)F` [Compound 123, N-(2-oxo-1,2-dihydropyridin-4-yl)-2-(4,4,4-trifluorobutoxy)-4-(trifluoromethyl)benzamide]?
Answer: HLM (% remaining @ 30 minutes) [1]: 103%; RLM (% remaining @ 30 minutes) [2]: 98%; IC50 (human Nav1.8): 355 nM

Question: What does the source list for `CC(C)(C)c1ccc(C(=O)Nc2ccc(=O)[nH]c2)c(Oc2ccc(C(F)(F)F)nc2)c1` [Compound 142, 4-(tert-butyl)-N-(6-oxo-1,6-dihydropyridin-3-yl)-2-((6-(trifluoromethyl)pyridin-3-yl)oxy)benzamide]?
Answer: HLM (% remaining @ 30 minutes) [1]: 38%; RLM (% remaining @ 30 minutes) [2]: 50%; IC50 (human Nav1.8): 653 nM

Question: With `O=C(Nc1cc[nH]c(=O)c1)c1c(Oc2ccc(F)cc2F)cc(C(F)(F)F)cc1C(F)(F)F` [Compound 152, 2-(2,4-difluorophenoxy)-N-(2-oxo-1,2-dihydropyridin-4-yl)-4,6-bis(trifluoromethyl)benzamide] as the molecule, how does the “HLM (% remaining @ 30 minutes)” value [1] read?
Answer: The value was 103%.

Question: And the “RLM (% remaining @ 30 minutes)” value [2]?
Answer: Its value is 100%.

Question: What about the IC50 (human Nav1.8) of the same molecule?
Answer: The IC50 was 44 nM.

Question: What does the source list for `O=C(Nc1cc[nH]c(=O)c1)c1ccc(C(F)(F)F)cc1Oc1ccc(F)cc1CO` [Compound 157, 2-(4-fluoro-2-(hydroxymethyl)phenoxy)-N-(2-oxo-1,2-dihydropyridin-4-yl)-4-(trifluoromethyl)benzamide]?
Answer: HLM (% remaining @ 30 minutes) [1]: 101.5%; RLM (% remaining @ 30 minutes) [2]: 102%; IC50 (human Nav1.8): 58 nM
